Patent US12415786B2, “Substituted 2-heteroarylaminobenzenes and the salts thereof and their use as herbicidal agents” (Bayer Aktiengesellschaft, priority 2019, dated 2025)

Legend:
Assay type in all cases: in vivo
[1] = system: Agrostis tenuis; assay: Herbicidal early post-emergence action (96-well microtiter plates), AGSTE; conditions: 1900 g/ha, scored 9 to 12 days after treatment, 100% = plants have died, 0% = like untreated control plants
Excerpt: (§1) In the examples and tables below, the following abbreviations are used: • Undesired Plants/Weeds: • ABUTH: Abutilon theophrasti • AGSTE: Agrostis tenuis • AMARE Amaranthus retroflexus • ECHCG: Echinochloa crus-galli • LOLRI: Lolium rigidum • MATIN: Matricaria inodora • POAAN: Poa annua • SETVI: Setaria viridis • STEME: Stellaria media A. Herbicidal Early Post-Emergence Action Seeds of monocotyledonous and dicotyledonous weed plants were placed in 96-well microtiter plates in quartz sand and grown in a climatized chamber under controlled growth conditions. 5 to 7 days after sowing, the test plants were treated at the cotyledon stage. The compounds according to the invention, formulated in the form of emulsion concentrates (EC), were applied with a water application rate of the equivalent of 2200 liters per hectare. After the test plants had been left to stand in the climatized chamber for 9 to 12 days under optimum growth conditions, the effect of the preparations was scored visually in comparison to untreated controls. Here, for example, 100% activity=the plants have died, 0% activity=like untreated control plants. Tables A1 to A2 below show the effects of selected compounds of the general formula (I) according to Table 1 above on various harmful plants and an application rate corresponding to 1900 g/ha, which were obtained by the experimental procedure mentioned above.

[2] = system: Poa annua; assay: Herbicidal early post-emergence action (96-well microtiter plates), POAAN; conditions: 1900 g/ha, scored 9 to 12 days after treatment, 100% = plants have died, 0% = like untreated control plants
Excerpt: as §1

[3] = system: Poa annua; assay: Herbicidal pre-emergence action (greenhouse pots), POAAN; conditions: 1280 g/ha, visual scoring after about 3 weeks vs untreated controls
Excerpt: (§2) In the examples and tables below, the following abbreviations are used: • Undesired Plants/Weeds: • ABUTH: Abutilon theophrasti • AGSTE: Agrostis tenuis • AMARE Amaranthus retroflexus • ECHCG: Echinochloa crus-galli • LOLRI: Lolium rigidum • MATIN: Matricaria inodora • POAAN: Poa annua • SETVI: Setaria viridis • STEME: Stellaria media A. Herbicidal Early Post-Emergence Action Seeds of mono- and dicotyledonous weed plants were placed in plastic pots in sandy loam soil (doubly sown with one species each of mono- or dicotyledonous weed plants per pot) and covered with soil. The compounds of the invention, formulated in the form of wettable powders (WP) or as emulsion concentrates (EC), were then applied onto the surface of the covering soil as aqueous suspension or emulsion with addition of 0.5% additive at a water application rate of 600 liters per hectare (converted). After the treatment, the pots were placed in a greenhouse and kept under good growth conditions for the test plants. After about 3 weeks, the effect of the preparations was scored visually in comparison with untreated controls as percentages. For example, 100% activity=the plants have died, 0% activity=like untreated control plants. Tables C1-C8 below show the effects of selected compounds of the general formula (I) according to Table 1 above on various harmful plants and an application rate corresponding to 1280 g/ha, which were obtained by the experimental procedure mentioned above.

[4] = system: Amaranthus retroflexus; assay: Herbicidal post-emergence action (greenhouse pots), AMARE; conditions: 1280 g/ha, visual rating about 3 weeks after treatment vs untreated controls
Excerpt: In the examples and tables below, the following abbreviations are used: • Undesired Plants/Weeds: • ABUTH: Abutilon theophrasti • AGSTE: Agrostis tenuis • AMARE Amaranthus retroflexus • ECHCG: Echinochloa crus-galli • LOLRI: Lolium rigidum • MATIN: Matricaria inodora • POAAN: Poa annua • SETVI: Setaria viridis • STEME: Stellaria media A. Herbicidal Early Post-Emergence Action Seeds of mono- and dicotyledonous weed plants were placed in plastic pots in sandy loam soil (doubly sown with in each case one species of mono- or dicotyledonous weed plants per pot), covered with soil and cultivated in a greenhouse under controlled growth conditions. 2 to 3 weeks after sowing, the test plants were treated at the one-leaf stage. The compounds of the invention, formulated in the form of wettable powders (WP) or as emulsion concentrates (EC), were applied onto the green parts of the plants as aqueous suspension or emulsion with addition of 0.5% additive at a water application rate of 600 liters per hectare (converted). After the test plants had been kept in the greenhouse under optimum growth conditions for about 3 weeks, the activity of the preparations was rated visually in comparison to untreated controls. For example, 100% activity=the plants have died, 0% activity=like untreated control plants. Tables B1-B8 below show the effects of selected compounds of the general formula (I) according to Table 1 above on various harmful plants and an application rate corresponding to 1280 g/ha, which were obtained by the experimental procedure mentioned above.

[5] = system: Setaria viridis; assay: Herbicidal pre-emergence action (greenhouse pots), SETVI; conditions: 1280 g/ha, visual scoring after about 3 weeks vs untreated controls
Excerpt: as §2

[6] = system: Stellaria media; assay: Herbicidal pre-emergence action (greenhouse pots), STEME; conditions: 1280 g/ha, visual scoring after about 3 weeks vs untreated controls
Excerpt: as §2

[7] = system: Amaranthus retroflexus; assay: Herbicidal pre-emergence action (greenhouse pots), AMARE; conditions: 1280 g/ha, visual scoring after about 3 weeks vs untreated controls
Excerpt: as §2

| Structure (SMILES) | AGSTE (herbicidal activity, scored visually in comparison to untreated controls) [1] | POAAN (herbicidal activity, scored visually in comparison to untreated controls) [2] | herbicidal activity POAAN [3] | herbicidal activity AMARE [4] | herbicidal activity SETVI [5] | herbicidal activity STEME [6] | herbicidal activity AMARE [7] |
| --- | --- | --- | --- | --- | --- | --- | --- |
| Fc1ccc(Oc2c(F)cccc2Nc2ccc(Cl)cn2)cc1 [Example 1-40] | 80% | 80% | – | – | – | – | – |
| Fc1ccc(Oc2c(Cl)cccc2Nc2ccc(Cl)cn2)cc1 [Example 1-75] | 100% | 80% | – | – | – | – | – |
| Cc1cccc(Nc2ccc(Cl)cn2)c1Oc1ccc(F)cc1 [Example 1-79] | 80% | 100% | 100% | – | – | – | – |
| N#Cc1cccc(Nc2ccc(Cl)cn2)c1Oc1ccc(F)cc1 [Example 1-124] | 100% | 100% | – | 100% | – | – | – |
| N#Cc1cccc(Nc2ccc(Cl)cn2)c1Oc1ccc(F)c(F)c1 [Example 1-129] | 100% | – | – | 100% | 90% | 90% | – |
| N#Cc1cccc(Nc2ccc(Br)cn2)c1Oc1ccc(F)cc1 [Example 1-143] | 80% | – | – | – | – | – | – |
| N#Cc1cccc(Nc2ccc(Br)cn2)c1Oc1ccc(F)c(F)c1 [Example 1-144] | 100% | 100% | – | – | – | – | – |
| N#Cc1ccc(Nc2cccc(C#N)c2Oc2ccc(F)cc2)nc1 [Example 1-145] | – | 80% | – | – | – | – | 90% |
| N#Cc1ccc(Nc2cccc(C#N)c2Oc2ccc(F)c(F)c2)nc1 [Example 1-146] | 80% | – | – | – | – | – | – |
| Cc1ccc(Nc2cccc(C#N)c2Oc2ccc(F)cc2)nc1 [Example 1-149] | 100% | – | – | 100% | – | – | 100% |
| N#Cc1cccc(Nc2ncccn2)c1Oc1ccccc1F [Example 1-246, 2-(2-Fluorophenoxy)-3-(pyrimidin-2-ylamino)benzonitrile] | 80% | – | – | 100% | 100% | 100% | 100% |
| N#Cc1cccc(Nc2ncccn2)c1Oc1cc(F)ccc1F [Example 1-252] | – | – | – | – | – | – | 90% |
| N#Cc1cccc(Nc2ncccn2)c1Oc1cc(F)cc(F)c1 [Example 1-254] | – | – | 90% | 100% | 100% | – | 100% |
| N#Cc1cccc(Nc2ncc(F)cn2)c1Oc1ccccc1F [Example 1-265] | 80% | – | 100% | 100% | 90% | 100% | 100% |
| N#Cc1cccc(Nc2ncc(F)cn2)c1Oc1cc(F)ccc1F [Example 1-271] | 80% | 80% | 90% | 100% | 90% | – | 100% |
| N#Cc1cccc(Nc2ncc(F)cn2)c1Oc1cc(F)cc(F)c1 [Example 1-273] | 80% | – | – | 100% | 90% | – | 100% |

| Structure (SMILES) | AGSTE (herbicidal activity, scored visually in comparison to untreated controls) [1] | POAAN (herbicidal activity, scored visually in comparison to untreated controls) [2] | herbicidal activity POAAN [3] | herbicidal activity AMARE [4] | herbicidal activity SETVI [5] | herbicidal activity STEME [6] | herbicidal activity AMARE [7] |
| --- | --- | --- | --- | --- | --- | --- | --- |
| COc1cccc(Oc2c(C#N)cccc2Nc2ncc(F)cn2)c1 [Example 1-281] | 100% | – | – | – | – | – | – |
| N#Cc1cccc(Nc2ncc(Cl)cn2)c1Oc1ccccc1F [Example 1-284] | 100% | 100% | – | 100% | 100% | 90% | 100% |
| N#Cc1cccc(Nc2ncc(Cl)cn2)c1Oc1cccc(Cl)c1 [Example 1-287] | 80% | – | 100% | 100% | 100% | – | 100% |
| N#Cc1cccc(Nc2ncc(Cl)cn2)c1Oc1cc(F)ccc1F [Example 1-290] | 80% | – | 90% | 100% | – | – | 90% |
| N#Cc1cccc(Nc2ncc(Cl)cn2)c1Oc1cc(F)cc(F)c1 [Example 1-292] | 100% | 80% | – | 100% | 90% | – | 100% |
| N#Cc1cccc(Nc2ncc(Cl)cn2)c1Oc1cccc(C(F)(F)F)c1 [Example 1-297] | 100% | 80% | – | 100% | 100% | – | – |
| COc1cccc(Nc2ncc(Cl)cn2)c1Oc1ccc(F)cc1 [Example 1-324] | 100% | 80% | – | – | – | – | – |
| CSc1cccc(Nc2ncc(Cl)cn2)c1Oc1ccc(F)cc1 [Example 1-328] | 80% | 80% | – | – | – | – | – |
| Clc1ccc(Oc2c(Cl)cccc2Nc2ncc(Cl)cn2)cc1 [Example 1-341] | 100% | 100% | – | 100% | – | 90% | – |
| CC(C)Oc1ccc(Nc2cccc(C#N)c2Oc2ccc(F)cc2)nc1 [Example 1-342] | – | – | – | 100% | 100% | – | 100% |
| Fc1ccc(Oc2c(Br)cccc2Nc2ncc(Cl)cn2)cc1 [Example 1-358] | 100% | 100% | – | – | – | – | – |
| CNc1cccc(Nc2ncc(Cl)cn2)c1Oc1ccc(F)cc1 [Example 1-365] | 100% | – | – | – | – | – | – |
| CN(C)c1cccc(Nc2ncc(Cl)cn2)c1Oc1ccc(F)cc1 [Example 1-366] | 100% | 80% | – | – | – | – | – |
| CCSc1cccc(Nc2ncc(Cl)cn2)c1Oc1ccc(F)cc1 [Example 1-376] | 80% | 80% | – | – | – | – | – |
| Nc1c([N+](=O)[O-])cc(Nc2ncc(Cl)cn2)c(Oc2ccc(F)cc2)c1Cl [Example 2-101, 2-Chloro-4-(5-chloropyrimidin-2-ylamino)-3-(4-fluorophenoxy)-6-nitroaniline] | 100% | 80% | – | – | – | – | – |
